From patent US9597407B2, “Targeted antimicrobial moieties” (C3 Jian, Inc., priority 2009, dated 2017)
Entries after “also recorded” stand apart in the source; their conditions may differ.

Test system: bacteria
Assay: Binding of targeting peptides to microorganisms (Table 3)
Conditions: preferably 1x PBS
[1] = microorganism bound by the targeting peptide, binding in aqueous buffers chosen by peptide solubility
[2] = peptide binding in aqueous buffers varied by peptide solubility
[3] = peptide binding in aqueous buffers that varied depending on peptide solubility
[4] = microorganism the targeting peptide binds, binding in aqueous buffers that varied with peptide solubility

PF-177 (VTSEPGIAHDIRLLPRAAAFR; Peptide with targeting and/or antimicrobial activity)
Target(s) [1]: M. luteus and MRSA and E. faecalis and C. jeikeium

PF-311 (IDAVTKKKTTCMIRAPTKIPIAHTDN; Peptide with targeting and/or antimicrobial activity)
Target(s) [1]: C. difficile

1T-13 (FRSPCINNNSLQPPGVYPAR; Peptide with targeting and/or antimicrobial activity) [Peptide 1T-13]
Target(s) (microorganism bound by the targeting peptide) [2]: S. aureus; also recorded: S. epidermidis; also recorded: P. aeruginosa

PF-299 (LATKLKYEKEHKKM; Peptide with targeting and/or antimicrobial activity)
Target(s) [1]: B. subtilis

PF-676 (AEYRGL; Peptide with targeting and/or antimicrobial activity)
Target(s) (microorganism bound by the targeting peptide) [3]: S. mutans; also recorded: E. coli

TT-308 (GLVIIPNLIALIILFSQVRQQTKDYFSNPKLSSR; Peptide with targeting and/or antimicrobial activity)
Target(s) [4]: F. nucleatum

1T-64 (QTVHHIHMHVLGQRQMHWPPG; Peptide with targeting and/or antimicrobial activity) [Peptide 1T-64]
Target(s) (microorganism bound by the targeting peptide) [2]: S. aureus; also recorded: S. epidermidis; also recorded: C. jeikeium; also recorded: C. xerosis; also recorded: C. striatum; also recorded: P. aeruginosa

1T-50 (HSDEPIPNILFKSDSVH; Peptide with targeting and/or antimicrobial activity) [Peptide 1T-50]
Target(s) (microorganism bound by the targeting peptide) [2]: P. aeruginosa

1T-124 (LFDERNKIA; Peptide with targeting and/or antimicrobial activity) [Peptide 1T-124]
Target(s) (microorganism bound by the targeting peptide) [2]: S. mitis; also recorded: S. mutans; also recorded: S. oralis

PF-689 (SAPSG; Peptide with targeting and/or antimicrobial activity)
Target(s) (microorganism bound by the targeting peptide) [3]: S. mutans; also recorded: E. coli

PF-441 (TQVHKMARGIDPGPANGIYR; Peptide with targeting and/or antimicrobial activity)
Target(s) (microorganisms bound by the targeting peptide) [3]: C. jeikeium

PF-351 (YLFFKGKKVAEEEATKDEVKR; Peptide with targeting and/or antimicrobial activity)
Target(s) [1]: S. mutans

PF-794 (NLYFENQGN; Peptide with targeting and/or antimicrobial activity)
Target(s) (microorganism bound by the targeting peptide) [3]: S. mutans

1T-33 (VRTLTILVIFIFNYLKSISYKLKQPFENNLAQSMISI; Peptide with targeting and/or antimicrobial activity) [Peptide 1T-33]
Target(s) (microorganism bound by the targeting peptide) [2]: S. aureus; also recorded: S. epidermidis; also recorded: C. jeikeium; also recorded: C. xerosis; also recorded: C. striatum; also recorded: P. aeruginosa

1T-282 (ISLVFPAYT; Peptide with targeting and/or antimicrobial activity) [Peptide 1T-282]
Target(s) [4]: F. nucleatum; also recorded: P. gingivalis; also recorded: S. gordonii; also recorded: S. mitis; also recorded: S. mutans; also recorded: S. oralis; also recorded: S. salivarious; also recorded: S. sanguinis

1T-87 (EAVGQDLVDAHHP; Peptide with targeting and/or antimicrobial activity) [Peptide 1T-87]
Target(s) (microorganism bound by the targeting peptide) [2]: S. mitis; also recorded: S. mutans; also recorded: S. oralis

PF-435 (MSRWDGHSDKGEAPAGKPPMHGFGLNGENK; Peptide with targeting and/or antimicrobial activity)
Target(s) (microorganisms bound by the targeting peptide) [3]: C. jeikeium

PF-221 (VFDNIDINF; Peptide with targeting and/or antimicrobial activity)
Target(s) [1]: S. epidermidis; also recorded: M. luteus; also recorded: P. aeruginosa

PF-325 (LTIDEKLRNHR; Peptide with targeting and/or antimicrobial activity)
Target(s) [1]: S. mutans; also recorded: E. coli

1T-32 (VSFLAGWLCLGLAAWRLGNA; Peptide with targeting and/or antimicrobial activity) [Peptide 1T-32]
Target(s) (microorganism bound by the targeting peptide) [2]: S. mutans

1T-104 (RAVAAHLQGRHHGHQVRRQRHGQR; Peptide with targeting and/or antimicrobial activity) [Peptide 1T-104]
Target(s) (microorganism bound by the targeting peptide) [2]: S. mitis

PF-254 (FIYGVGFVPHFWLWKWLFSPWIAWPLMLLGYYIWFLT; Peptide with targeting and/or antimicrobial activity)
Target(s) [1]: S. epidermidis; also recorded: M. luteus; also recorded: P. aeruginosa; also recorded: A. baumannii

PF-202 (ALNRASLRLALGE; Peptide with targeting and/or antimicrobial activity)
Target(s) [1]: S. epidermidis and M. luteus and E. coli and MRSA and E. faecalis and C. jeikeium and C. jejuni

PF-750 (AESSPAKTTA; Peptide with targeting and/or antimicrobial activity)
Target(s) (microorganism bound by the targeting peptide) [3]: M. luteus; also recorded: C. jeikeium

LVLRICTDLFTFIKWTIKQRKS [PF-497]
Target(s) (microorganisms bound by the targeting peptide) [3]: S. mutans; also recorded: B. subtilis; also recorded: E. coli

PF-797 (WYYFDNNGYM; Peptide with targeting and/or antimicrobial activity)
Target(s) (microorganism bound by the targeting peptide) [3]: S. mutans

1T-56 (LALIGAGIWMIRKG; Peptide with targeting and/or antimicrobial activity) [Peptide 1T-56]
Target(s) (microorganism bound by the targeting peptide) [2]: C. xerosis; also recorded: P. aeruginosa

PF-790 (PAGPDHLDQRDHR; Peptide with targeting and/or antimicrobial activity)
Target(s) (microorganism bound by the targeting peptide) [3]: Mycobacteria spp.

PF-183 (KPGISVENRQ; Peptide with targeting and/or antimicrobial activity)
Target(s) [1]: S. epidermidis and M. luteus and E. coli and C. albicans and MRSA and E. faecalis and C. jeikeium

PF-275 (LVSGVANTVKNTAHTVGNTAKHAGHVAADTTVKATKKQQVK; Peptide with targeting and/or antimicrobial activity)
Target(s) [1]: S. mutans

1T-145 (VEAGKRNISLENIEKISKGLGISISELFKYIEEGEDKIG; Peptide with targeting and/or antimicrobial activity) [Peptide 1T-145]
Target(s) (microorganism bound by the targeting peptide) [2]: S. mitis; also recorded: S. mutans; also recorded: S. oralis

1T-54 (RWVSCNPSWRIQ; Peptide with targeting and/or antimicrobial activity) [Peptide 1T-54]
Target(s) (microorganism bound by the targeting peptide) [2]: S. epidermidis; also recorded: C. xerosis; also recorded: C. striatum; also recorded: P. aeruginosa

1T-25 (VGLDVSVLVLFFGLQLLSVLLGAMIR; Peptide with targeting and/or antimicrobial activity) [Peptide 1T-25]
Target(s) (microorganism bound by the targeting peptide) [2]: S. aureus; also recorded: S. epidermidis; also recorded: C. xerosis; also recorded: C. striatum; also recorded: P. aeruginosa

PF-216 (ESVDKITEALEEDGFPAKVQ; Peptide with targeting and/or antimicrobial activity)
Target(s) [1]: S. mutans; also recorded: E. coli

PF-498 (MSEEEEVSEKVYNYLRRNEFFEVRKEEFSA; Peptide with targeting and/or antimicrobial activity)
Target(s) (microorganisms bound by the targeting peptide) [3]: S. mutans; also recorded: E. coli

PF-487 (MYKAIAVLAMTIMAFFIFVYPFFIVGLILG; Peptide with targeting and/or antimicrobial activity)
Target(s) (microorganisms bound by the targeting peptide) [3]: S. mutans; also recorded: E. coli

PF-232 (FDQLYALEREGKLDELLA; Peptide with targeting and/or antimicrobial activity)
Target(s) [1]: S. epidermidis; also recorded: M. luteus

PF-765 (YLYWEVEHKPIIAKRDAYYAQLRKQKEIEEGA; Peptide with targeting and/or antimicrobial activity)
Target(s) (microorganism bound by the targeting peptide) [3]: S. epidermidis and M. luteus and E. coli and MRSA and E. faecalis and C. jeikeium

PF-796 (YTQSNIPTAYALMLSNKDSI; Peptide with targeting and/or antimicrobial activity)
Target(s) (microorganism bound by the targeting peptide) [3]: S. mutans

PF-242 (KLFEDPLIKSKAVENFQTTWHEQCLAKELAKNM; Peptide with targeting and/or antimicrobial activity)
Target(s) [1]: S. mutans; also recorded: E. coli

1T-59 (AVGNNLGKDNDSGHRGKKHRKHKHR; Peptide with targeting and/or antimicrobial activity) [Peptide 1T-59]
Target(s) (microorganism bound by the targeting peptide) [2]: S. aureus; also recorded: S. epidermidis; also recorded: P. aeruginosa

1T-8 (FSVAACGEQRAVTFVLLIEDLI; Peptide with targeting and/or antimicrobial activity) [Peptide 1T-8]
Target(s) (microorganism bound by the targeting peptide) [2]: M. xanthus

PF-701 (PRGAQSGHG; Peptide with targeting and/or antimicrobial activity)
Target(s) (microorganism bound by the targeting peptide) [3]: S. mutans

PF-507 (LALSIANLFKKKA; Peptide with targeting and/or antimicrobial activity)
Target(s) (microorganisms bound by the targeting peptide) [3]: S. mutans; also recorded: E. coli

PF-262 (DPHSEIDVTRYCQLHHFTCQTMQISEREFHYLIETQ; Peptide with targeting and/or antimicrobial activity)
Target(s) [1]: S. mutans; also recorded: S. epidermidis; also recorded: M. luteus; also recorded: E. coli; also recorded: P. aeruginosa; also recorded: A. baumannii

PF-281 (SYNTYYNKLIHGQRTPDGM; Peptide with targeting and/or antimicrobial activity)
Target(s) [1]: S. mutans; also recorded: E. coli

PF-038 (MAYKDEGKETKFAVKGYKD; Peptide with targeting and/or antimicrobial activity)
Target(s) [4]: M. luteus

PF-055 (GHVFNGNNKRNL; Peptide with targeting and/or antimicrobial activity)
Target(s) [4]: S. mutans
